Assays:
[1] = test system: rats and dogs; experiment: Toxicology studies (oral and IV programmes); format: in vivo
Experimental: (§1) When given IV to rats and dogs, the main dose limiting toxicity finding was sedation. The no observed adverse effect level (NOAEL) after IV dosing in rats for 14 days was established at 42 mg/kg/day for males and 30 mg/kg/day for females. The NOAEL in dog after administration of ganaxolone by IV bolus followed by continuous IV infusion for 28 days was 7.20 mg/kg/day, which corresponded to a steady-state concentration of approximately 330 ng/mL and 333 ng/mL. There were no findings in a local tolerance study in rabbits.

[2] = test system: rats; experiment: 6-month study in rats; format: in vivo; conditions: more pronounced in females, correlated to increased liver weights and hepatocellular hypertrophy
[3] = test system: rabbits; experiment: Local tolerance study in rabbits; format: in vivo
Experimental: as §1

[4] = test system: BTBR mouse model of autism; conditions: in vivo; cited from earlier work
[5] = test system: synaptic and extrasynaptic GABAA receptors; conditions: site distinct from benzodiazepines and barbiturates; cited from earlier work

CC(=O)[C@H]1CC[C@H]2[C@@H]3CC[C@H]4C[C@](C)(O)CC[C@]4(C)[C@H]3CC[C@]12C [Ganaxolone, 3α-hydroxy-3β-methyl-5α-pregnan-20-one]
main dose limiting toxicity finding ([1]; IV to rats and dogs): sedation
most common effect in toxicology studies ([1]; in vivo): dose-related sedation
target organ or systemic toxicity ([1]; oral and IV programmes, single- or multiple-dose): little evidence of target organ or systemic toxicity
hepatic findings [2]: induced hepatic enzymes
local tolerance [3]: no findings
sociability [4]: improved sociability
potency and efficacy in activating GABAA receptors [5]: comparable to allopregnanolone

— US11980625B2, “Ganaxolone for use in treating tuberous sclerosis complex” (Marinus Pharmaceuticals, Inc., priority 2019, dated 2024)
